# Assay results: BindingDB's records for patent US9457039 (Merck Sharp & Dohme Corp, 2016)
# Molecular target: T1, Genome polyprotein [2420-3010] (HCV, UniProt P26663)
# T1 construct: 2420-3010
# Test: Inhibition Assay
# Settings: pH 7.3; 25 °C
# Protocol: To measure inhibition of the enzymatic activity of the HCV NS5B RNA-dependent RNA polymerase by the nucleoside triphosphate compounds of the present invention, a radiolabeled nucleotide incorporation assay was used. […] The assay was then terminated by the addition of 500 mM EDTA (50 μL). The reaction mixture was transferred to a Millipore DE81 filter plate and the incorporation of labeled CTP is determined using Packard TopCount.
# T1 sequence (P26663 2420-3010): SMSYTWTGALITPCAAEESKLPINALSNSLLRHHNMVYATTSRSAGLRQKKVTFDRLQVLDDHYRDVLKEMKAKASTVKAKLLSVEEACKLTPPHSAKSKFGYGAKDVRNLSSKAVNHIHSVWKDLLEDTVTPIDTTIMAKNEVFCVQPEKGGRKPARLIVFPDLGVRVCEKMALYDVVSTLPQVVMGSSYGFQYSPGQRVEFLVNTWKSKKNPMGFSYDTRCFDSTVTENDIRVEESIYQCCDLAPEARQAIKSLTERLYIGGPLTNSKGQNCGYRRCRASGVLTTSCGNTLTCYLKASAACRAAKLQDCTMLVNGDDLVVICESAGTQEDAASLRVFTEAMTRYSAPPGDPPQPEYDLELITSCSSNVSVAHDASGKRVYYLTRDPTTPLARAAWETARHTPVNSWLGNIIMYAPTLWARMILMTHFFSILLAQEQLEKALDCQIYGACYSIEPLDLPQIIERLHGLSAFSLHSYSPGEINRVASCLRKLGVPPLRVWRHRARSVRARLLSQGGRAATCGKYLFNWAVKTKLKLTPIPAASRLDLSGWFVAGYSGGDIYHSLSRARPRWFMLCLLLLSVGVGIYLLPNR
row,SMILES,IC50 [µM]
1,"C[C@@]1(N=[N+]=[N-])[C@H](O)[C@@H](COP(=O)(O)OP(=O)(O)OP(=O)(O)O)O[C@H]1c1cnc2c(N)ncnn12 [US9457039, 22]",0.93
2,"C[C@@]1(N)[C@H](O)[C@@H](COP(=O)(O)OP(=O)(O)OP(=O)(O)O)O[C@H]1c1cnc2c(N)ncnn12 [US9457039, 23]",6.7
3,"C[C@@]1(N)[C@H](O)[C@@H](COP(=O)(O)OP(=O)(O)OP(=O)(O)O)O[C@H]1c1ccc2c(N)ncnn12 [US9457039, 24]",1.1
4,"C[C@@]1(N)[C@H](O)[C@@H](COP(=O)(O)OP(=O)(O)OP(=O)(O)O)O[C@H]1c1cnn2c(N)ncnc12 [US9457039, 25]",51
